Results reported in ChEMBL document CHEMBL5214883, “Comprehensive review for anticancer hybridized multitargeting HDAC inhibitors” (Eur J Med Chem, 2021).
pIC50: −log10 of the molar value. Blank lines part the entries; values can stand above or below the molecule they belong to.

How the values were obtained:
MCF7 = assay: Cytotoxicity against human MCF7 cells; assay type: functional, cell-based
[1] = target: T1, Epidermal growth factor receptor (Homo sapiens, UniProt P00533); assay: Inhibition of EGFR wildtype (unknown origin) incubated for 40 mins in presence of ATP
Histone deacetylase 1 [2] = target: T2, Histone deacetylase 1 (Homo sapiens, UniProt Q13547); assay: Inhibition of HDAC1 in human HeLa cell nuclear extract using Bos-Lys(acetyl)-AMC as substrate preincubated for 5 mins followed by substrate addition incubated for 30 mins; assay type: cell-free
[3] = system: Epidermal growth factor receptor (Homo sapiens), P00533 [UNDEFINED MUTATION]; assay: Inhibition of EGFR T790M (unknown origin) at 1 uM incubated for 40 mins in presence of ATP relative to control
Tubulin = assay: Inhibition of tubulin polymerization (unknown origin) incubated for 15 mins in presence of GTP by fluorescence-based tubulin polymerization assay kit; assay type: protein-complex assay, Homo sapiens
Bcr/Abl fusion protein = Bcr/Abl fusion protein (Homo sapiens, UniProt P00519); assay: Inhibition of Bcr-Abl (unknown origin); assay type: protein assay
Histone deacetylase 1 [4] = target: T2, Histone deacetylase 1; assay: Inhibition of HDAC1 (unknown origin)
DU-145 [5] = assay: Cytotoxicity against human DU-145 cells
K562 = assay: Cytotoxicity against human K562 cells
Histone deacetylase [6] = assay: Inhibition of HDAC (unknown origin); assay type: protein assay, Homo sapiens
Histone deacetylase 1 [7] = target: T2, Histone deacetylase 1; assay: Inhibition of HDAC1 (unknown origin) relative to control; details: concentration not given here
[8] = target: cGMP-specific 3',5'-cyclic phosphodiesterase (Homo sapiens, UniProt O76074); assay: Inhibition of PDE5 (unknown origin) incubated for 1.5 hrs by IMAP fluorescence polarization phosphodiesterase evaluation assay
[9] = target: Vascular endothelial growth factor receptor 2 (Homo sapiens, UniProt P35968); assay: Inhibition of VEGFR2 (unknown origin)
DU-145 [10] = assay: Antiproliferative activity against human DU-145 cells incubated for 48 hrs by Sulforhodamine B staining method; assay type: functional, cell-based; details: DU-145, 48 h
[11] = target: T1, Epidermal growth factor receptor; assay: Inhibition of EGFR (unknown origin)
Histone deacetylase [12] = assay: Inhibition of HDAC (unknown origin) by H4 Hybrid Multi-Mode Microplate Reade; assay type: protein assay, Homo sapiens

Sequence of Epidermal growth factor receptor (Homo sapiens), P00533 [UNDEFINED MUTATION] (P00533 whole entry, looked up, stated change not applied): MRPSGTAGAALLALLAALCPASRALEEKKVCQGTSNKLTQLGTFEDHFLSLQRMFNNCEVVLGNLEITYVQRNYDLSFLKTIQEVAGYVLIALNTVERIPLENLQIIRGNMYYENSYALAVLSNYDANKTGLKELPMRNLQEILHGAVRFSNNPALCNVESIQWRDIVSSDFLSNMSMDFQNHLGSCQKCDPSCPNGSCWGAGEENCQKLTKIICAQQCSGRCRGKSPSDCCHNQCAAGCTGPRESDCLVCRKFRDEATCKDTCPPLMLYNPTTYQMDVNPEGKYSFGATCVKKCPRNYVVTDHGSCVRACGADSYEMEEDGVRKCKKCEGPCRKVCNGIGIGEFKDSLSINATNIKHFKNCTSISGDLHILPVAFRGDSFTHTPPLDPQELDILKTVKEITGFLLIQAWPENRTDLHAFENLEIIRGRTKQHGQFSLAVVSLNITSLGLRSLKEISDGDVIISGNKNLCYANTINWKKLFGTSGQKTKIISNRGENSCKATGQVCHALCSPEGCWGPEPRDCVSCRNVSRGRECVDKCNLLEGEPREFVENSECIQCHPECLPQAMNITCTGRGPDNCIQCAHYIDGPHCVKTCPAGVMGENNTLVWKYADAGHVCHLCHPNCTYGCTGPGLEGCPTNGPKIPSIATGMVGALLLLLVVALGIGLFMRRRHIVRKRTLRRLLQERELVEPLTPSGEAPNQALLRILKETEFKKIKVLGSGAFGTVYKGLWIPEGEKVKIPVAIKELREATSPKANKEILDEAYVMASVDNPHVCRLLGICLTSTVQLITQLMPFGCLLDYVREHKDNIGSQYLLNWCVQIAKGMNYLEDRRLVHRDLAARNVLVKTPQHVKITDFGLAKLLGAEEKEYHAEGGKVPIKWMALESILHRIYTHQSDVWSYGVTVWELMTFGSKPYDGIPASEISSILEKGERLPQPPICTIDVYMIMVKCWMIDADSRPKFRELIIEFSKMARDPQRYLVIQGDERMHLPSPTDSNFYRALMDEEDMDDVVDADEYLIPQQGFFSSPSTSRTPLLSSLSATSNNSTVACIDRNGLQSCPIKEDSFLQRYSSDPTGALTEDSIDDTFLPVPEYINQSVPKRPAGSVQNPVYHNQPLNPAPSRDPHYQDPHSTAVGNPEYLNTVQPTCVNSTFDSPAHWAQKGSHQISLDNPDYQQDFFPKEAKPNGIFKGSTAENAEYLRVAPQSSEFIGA
T2 sequence (Q13547 whole entry): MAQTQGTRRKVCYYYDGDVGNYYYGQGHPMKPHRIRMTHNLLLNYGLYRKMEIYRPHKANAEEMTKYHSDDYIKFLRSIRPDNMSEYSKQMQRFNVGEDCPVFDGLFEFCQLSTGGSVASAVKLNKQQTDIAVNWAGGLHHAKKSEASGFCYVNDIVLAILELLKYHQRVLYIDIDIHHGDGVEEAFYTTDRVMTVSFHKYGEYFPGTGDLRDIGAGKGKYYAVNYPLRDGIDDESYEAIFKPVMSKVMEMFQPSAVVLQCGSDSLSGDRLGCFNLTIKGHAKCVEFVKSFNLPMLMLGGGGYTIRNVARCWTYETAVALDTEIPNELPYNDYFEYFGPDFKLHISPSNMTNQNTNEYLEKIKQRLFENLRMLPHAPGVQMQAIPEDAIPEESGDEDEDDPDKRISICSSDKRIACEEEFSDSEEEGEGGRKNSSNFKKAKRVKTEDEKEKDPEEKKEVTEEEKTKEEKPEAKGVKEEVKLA
T1 sequence (P00533 whole entry): as the sequence (P00533 whole entry, looked up, stated change not applied) above
Sequence of Vascular endothelial growth factor receptor 2 (P35968 whole entry): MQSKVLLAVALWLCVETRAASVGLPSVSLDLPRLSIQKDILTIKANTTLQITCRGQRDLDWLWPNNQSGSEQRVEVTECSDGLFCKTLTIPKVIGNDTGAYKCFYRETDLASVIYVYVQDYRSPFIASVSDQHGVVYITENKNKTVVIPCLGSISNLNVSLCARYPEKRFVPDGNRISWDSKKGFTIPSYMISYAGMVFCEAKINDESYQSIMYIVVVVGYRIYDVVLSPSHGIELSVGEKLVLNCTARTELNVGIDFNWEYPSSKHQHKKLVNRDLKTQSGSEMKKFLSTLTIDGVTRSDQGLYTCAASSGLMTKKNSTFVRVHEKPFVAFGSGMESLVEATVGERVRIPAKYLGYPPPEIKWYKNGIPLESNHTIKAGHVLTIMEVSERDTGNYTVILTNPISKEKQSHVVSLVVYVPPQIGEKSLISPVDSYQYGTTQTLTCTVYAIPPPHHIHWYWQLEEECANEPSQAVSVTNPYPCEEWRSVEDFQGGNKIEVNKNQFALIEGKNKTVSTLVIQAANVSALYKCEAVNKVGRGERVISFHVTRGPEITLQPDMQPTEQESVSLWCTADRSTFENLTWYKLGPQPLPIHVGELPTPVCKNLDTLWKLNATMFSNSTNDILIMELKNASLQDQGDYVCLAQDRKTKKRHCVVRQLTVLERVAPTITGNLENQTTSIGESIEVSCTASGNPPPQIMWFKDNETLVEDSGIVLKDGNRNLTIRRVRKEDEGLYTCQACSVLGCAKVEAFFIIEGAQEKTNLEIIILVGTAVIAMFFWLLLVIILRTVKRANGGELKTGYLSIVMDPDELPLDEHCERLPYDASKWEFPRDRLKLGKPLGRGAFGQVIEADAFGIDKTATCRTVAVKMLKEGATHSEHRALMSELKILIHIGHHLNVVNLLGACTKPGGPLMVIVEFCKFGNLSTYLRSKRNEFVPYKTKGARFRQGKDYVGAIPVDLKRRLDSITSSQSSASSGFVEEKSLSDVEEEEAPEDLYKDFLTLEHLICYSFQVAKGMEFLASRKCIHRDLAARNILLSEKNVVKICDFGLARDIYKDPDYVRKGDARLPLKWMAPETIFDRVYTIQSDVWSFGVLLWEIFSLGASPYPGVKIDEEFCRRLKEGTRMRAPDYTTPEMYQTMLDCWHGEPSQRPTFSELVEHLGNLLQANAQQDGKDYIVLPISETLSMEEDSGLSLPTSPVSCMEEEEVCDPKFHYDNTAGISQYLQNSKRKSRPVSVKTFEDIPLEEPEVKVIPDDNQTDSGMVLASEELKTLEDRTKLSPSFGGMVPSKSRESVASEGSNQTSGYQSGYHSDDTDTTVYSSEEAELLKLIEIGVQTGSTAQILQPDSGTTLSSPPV

Compound: COc1cc2ncnc(Nc3ccc(Br)cc3)c2cc1OCCCCCCC(=O)NO
- pIC50 (MCF7): 6.06

- pIC50 [1]: 5.23
- pIC50 (Histone deacetylase 1 [2]): 7.07
- inhibition [3]: 15%
Compound: COc1cc(NC(=O)CCCCCCC(=O)NO)ccc1Nc1nccc(-c2cn(C)c3ccccc23)n1

- pIC50 (Tubulin): 5.18
Compound: C[C@H]1COc2c(N3CCN(C)CC3)c(F)cc3c(=O)c(C(=O)OCc4cn(CCCCCCCC(=O)NO)nn4)cn1c23

- pIC50 (Bcr/Abl fusion protein): 4.75
- pIC50 (Histone deacetylase 1 [4]): 6.09
Compound: CCN1CCN(c2cc(Nc3ncc(C(=O)Nc4ccc(F)cc4N)s3)nc(C)n2)CC1
- pIC50 (DU-145 [5]): 6.22
- pIC50 (K562): 5.58

- IC50 (Histone deacetylase [6]): 1.03 µM
Compound: CNC(=O)c1cc(Oc2ccc(NC(=O)c3cccc(N)c3)cc2)ccc1N

- pIC50 (Histone deacetylase 1 [2]): 6.92
- inhibition [3]: 13%
Compound: COc1cc(NC(=O)CCCCCC(=O)NO)ccc1Nc1nccc(-c2cn(C)c3ccccc23)n1

- inhibition (Histone deacetylase 1 [7]): 97%
Compound: O=C(CCn1cc(CCn2nc3c(Br)c(Br)c(Br)c(Br)c3n2)nn1)NO

- pIC50 [8]: 8.70
Compound: O=C(O)CCN1CC(=O)N2[C@H](CC3c4ccccc4NC3[C@H]2c2ccc(Br)cc2)C1=O (some centres not stated)

- IC50 (Histone deacetylase [6]): 1.17 µM
Compound: CNC(=O)c1cc(Oc2ccc(NC(=O)c3ccc(Cl)c(C(F)(F)F)c3)cc2)ccc1N

- pIC50 (Tubulin): 5.18
Compound: C[C@H]1COc2c(N3CCN(C)CC3)c(F)cc3c(=O)c(C(=O)NCc4cn(CCCCCCCC(=O)NO)nn4)cn1c23

- IC50 (Histone deacetylase [6]): 6.19 µM
Compound: CNC(=O)c1cc(Oc2ccc(NC(=O)c3ccccc3)cc2)ccc1N

- IC50 (Histone deacetylase [6]): 8.21 µM
Compound: CNC(=O)c1cc(Oc2ccc(NC(=O)c3ccc4ccccc4c3)cc2)ccc1N

- IC50 (Histone deacetylase [6]): 2.79 µM
Compound: NC(=O)c1cc(Oc2ccc(NC(=O)c3ccc(Cl)c(C(F)(F)F)c3)cc2)ccc1N

Compound: Cc1nc(Nc2ncc(C(=O)Nc3c(C)cccc3Cl)s2)cc(N2CCN(CCO)CC2)n1 [DASATINIB]
- pIC50 (DU-145 [5]): 5.61
- pIC50 (K562): 5.13

- pIC50 [9]: < 5.00
- pIC50 (DU-145 [10]): 6.10
- pIC50 [11]: 7.92
Compound: O=C(CCCCCCC(=O)Nc1ccccc1)NO [VORINOSTAT]

Compound: C[C@H]1COc2c(N3CCN(C)CC3)c(F)cc3c(=O)c(C(=O)NCc4cn(CCCCCCC(=O)NO)nn4)cn1c23
- pIC50 (Tubulin): 5.75

Compound: Nc1ccccc1NC(=O)c1ccc(CNC(=O)OCc2cccnc2)cc1 [ENTINOSTAT]
- pIC50 (DU-145 [5]): 5.43
- pIC50 (K562): 4.67

- pIC50 (Tubulin): 5.26
Compound: C[C@H]1COc2c(N3CCN(C)CC3)c(F)cc3c(=O)c(C(=O)OCc4cn(CCCCCC(=O)NO)nn4)cn1c23

- IC50 (Histone deacetylase [6]): 5.23 µM
Compound: CNC(=O)c1cc(Oc2ccc(NC(=O)c3cccnc3)cc2)ccc1N

- pIC50 [8]: 7.34
- IC50 (Histone deacetylase [12]): 0.0142 µM
Compound: O=C(CCCCCCN1CC(=O)N2[C@H](CC3c4ccccc4NC3[C@H]2c2ccc(Br)cc2)C1=O)NO (some centres not stated)

- pIC50 (Bcr/Abl fusion protein): 4.67
- pIC50 (Histone deacetylase 1 [4]): 6.82
Compound: CCN1CCN(c2cc(Nc3ncc(C(=O)Nc4ccccc4N)s3)nc(C)n2)CC1
- pIC50 (DU-145 [5]): 5.24
- pIC50 (K562): 5.59

- pIC50 (Tubulin): 5.74
Compound: C[C@H]1COc2c(N3CCN(C)CC3)c(F)cc3c(=O)c(C(=O)OCc4cn(CCCCCCC(=O)NO)nn4)cn1c23

- pIC50 [9]: 7.08
- IC50 (Histone deacetylase [6]): 0.0028 µM
Compound: COc1cc2ncnc(Nc3ccc(Cl)cc3Cl)c2cc1OCCCCCCC(=O)NO
- pIC50 (MCF7): 4.92

- IC50 (Histone deacetylase [6]): 1.95 µM
Compound: CNC(=O)c1cc(Oc2ccc(NC(=O)c3cccc(O)c3)cc2)ccc1N

- IC50 (Histone deacetylase [6]): 2.27 µM
Compound: CNC(=O)c1cc(Oc2ccc(NC(=O)c3ccc(N)cc3)cc2)ccc1N

- IC50 (Histone deacetylase [6]): > 1000 µM
Compound: CN(C)C(=O)c1cc(Oc2ccc(NC(=O)c3ccc(Cl)c(C(F)(F)F)c3)cc2)ccc1N

- pIC50 (Histone deacetylase 1 [2]): 7.64
- inhibition [3]: 35%
Compound: Cn1cc(-c2ccnc(Nc3ccc(NC(=O)CCCCCC(=O)NO)cc3)n2)c2ccccc21

- IC50 (Histone deacetylase [6]): > 10 µM
Compound: COc1cc2/c(=N/c3ccc(Br)cc3F)nc[nH]c2cc1OCC1CCN(C)CC1 [VANDETANIB]
- pIC50 (MCF7): 4.73

- IC50 (Histone deacetylase [12]): 0.0612 µM
Compound: O=C(CCCCCN1CC(=O)N2[C@@H](CC3c4ccccc4NC3[C@@H]2c2ccc(Br)cc2)C1=O)NO (some centres not stated)
